Test results published in a melting point compilation (Tetko et al.).

Row | SMILES | melting point [°C]
1 | COc1c(F)ccc(F)c1C(=O)O | 82 to 84
2 | Cc1c(C(=O)O)cnn1CC(C)C | 109 to 111
3 | Cc1cc(CC#N)no1 | 36 to 38
4 | O=C(NCc1ccccc1F)c1ccc(-n2ccnc2S)cc1 | 211 to 213
5 | CNC1CCN(c2cc(OC)cc(OC)c2)C1 (configuration not stated) | 52 to 54
6 | CN1CC(=O)N(Cc2ccc(C(N)=O)cc2[N+](=O)[O-])C1=O | 219 to 221
7 | Nc1cccc(-c2noc(C3CC3)n2)c1 | 69 to 71
8 | O=C(O)C=Cc1cn(-c2ccccc2)nc1-c1ccc2c(c1)OCCO2 | 250 to 252
9 | CC(C)(C)OC(=O)NC1CC1 | 62 to 64
10 | O=C(O)c1ccc(S(=O)(=O)Cl)s1 | 119 to 121
11 | Cc1ccc(Oc2cc(C#N)ccn2)cc1C | 63 to 65
12 | CNc1ncc(Br)cn1 | 116 to 118
13 | CC(C)(C)OC(=O)N1CC=C(n2c(=O)[nH]c3ccccc32)CC1 | 201 to 203
14 | COc1cc(C=O)ccc1OCC(=O)c1ccc(Cl)c(Cl)c1 | 137 to 139
15 | COc1cc(OC)c(C(C)=O)cc1Cl | 134 to 136
16 | O=C1CCCCC1n1ccc([N+](=O)[O-])n1 (configuration not stated) | 128 to 130
17 | CN1CCN(S(=O)(=O)c2ccc(C(=O)NN)cc2)CC1 | 170 to 172
18 | C#CCOc1ccc(C(C)=O)cc1 | 72 to 74
19 | Fc1cccc(F)c1-n1ccc(CCl)n1 | 39 to 41
20 | N#Cc1cccc(NC(=O)c2cccc(N)c2)c1 | 163 to 165
21 | CSc1ccc(C#N)c(Cl)c1 | 117 to 119
22 | C#CCNC(=O)Nc1ccccc1 | 133 to 135
23 | COc1ccc(-c2nnc(N)[nH]2)c(OC)c1 | 214 to 216
24 | O=C(O)Cn1nnc2ccccc2c1=O | 145 to 150
25 | Nc1c(Cl)cc(S(=O)(=O)Cl)cc1Cl | 134 to 136
26 | Cc1ccc(-c2nonc2N)cc1 | 139 to 141

Row | SMILES | melting point [°C]
27 | COC(=O)c1cc(Cl)ccn1 | 55 to 57
28 | CC(C)(C)N1C(=O)CNC1=O | 84 to 86
29 | CN1C(=O)CC(C(=O)O)C1c1ccc(Cl)c(F)c1 (configuration not stated) | 225 to 227
30 | Cc1nc(C(=O)O)c[nH]1 | 239 to 241
31 | O=C(O)c1ccc(-c2ccc(Cl)c(Cl)c2)s1 | 253 to 255
32 | CC(C)(C)OC(=O)NCC1CCCCN1 (configuration not stated) | 93 to 95
33 | CC(Cl)C(=O)NC(=O)NC1CC1 (configuration not stated) | 88 to 90
34 | ClCc1nc2cc(Cl)ccc2n1Cc1ccccc1 | 105 to 115
35 | Nc1nnc(-c2ccc(Cl)cc2Cl)[nH]1 | 228 to 230
36 | O=Cc1cccc(Br)c1O | 51 to 55
37 | O=Cc1ccc(-c2ccncc2)cc1F | 107 to 109
38 | CCOC(=O)CC(=O)c1[nH]c(C)c(C(=O)OCC)c1C | 141 to 143
39 | O=C(CC(F)(F)F)c1ccccc1 | 37 to 39
40 | Cc1nc(CCl)nc2ccccc12 | 60 to 62
41 | COC(=O)c1cc(C(=O)OC)cc(-n2c(C)cc(C(=O)CCl)c2C)c1 | 153 to 155
42 | CC(C)(C)OC(=O)N1CCN(CC(O)c2ccco2)CC1 (configuration not stated) | 57 to 59
43 | OCCN(Cc1ccccc1)Cc1ccccc1 | 41 to 43
44 | COc1cc2c(cc1OC)S(=O)(=O)NC2=O | 279 to 281
45 | O=C(NCC(F)(F)F)c1cccc(S(=O)(=O)Cl)c1 | 83 to 85
46 | [N-]=[N+]=NC1(c2ccc(F)cc2)CCOCC1 | 63 to 65
47 | Brc1cnc(NCc2ccncc2)nc1 | 122 to 124
48 | O=C(O)C1CCN(c2ccc3c(c2)OCCO3)C1=O (configuration not stated) | 122 to 124
49 | CC(Cl)c1nnc(-c2ccccc2)o1 (configuration not stated) | < 17
50 | Clc1cc2nn[nH]c2cc1Cl | 249 to 251
51 | N#Cc1ccc(Cl)cc1NCC1CCOC1 (configuration not stated) | 114 to 116
52 | O=C(O)C(=O)C=Cc1cccs1 | 114 to 116

Row | SMILES | melting point [°C]
53 | CCC(C)C(O)C(=O)O (configuration not stated) | 45 to 47
54 | NS(=O)(=O)c1cccnc1Cl | 183 to 185
55 | CCNc1ccc(C#N)c(Cl)c1 | 69 to 71
56 | Cc1nc(-c2ccc(S(N)(=O)=O)cc2)co1 | 245 to 247
57 | CC1(c2ccsc2)NC(=O)NC1=O (configuration not stated) | 151 to 153
58 | O=C1CS(=O)CCN1 (configuration not stated) | 119 to 121
59 | COCCSc1ccc([N+](=O)[O-])cc1C(=O)O | 159 to 161
60 | Nc1cccc(C(=O)N2CCCCC2CCO)c1 (configuration not stated) | 129 to 131
61 | NNc1c(Cl)cc(F)cc1Cl | 109 to 111
62 | O=C(O)COc1ccc(Nc2ccccc2)cc1 | 138 to 142
63 | Cn1cnnc1S(=O)(=O)O | 170 to 172
64 | O=C(O)c1ccc(SCCCO)cc1 | 168 to 170
65 | COCc1nc(C)c(C(=O)O)s1 | 159 to 161
66 | O=C(O)CN1C(=O)C2C3C=CC(C3)C2C1=O (configuration not stated) | 146 to 148
67 | CCN(Cc1ccc2c(c1)OCCO2)C(=O)CCl | 213 to 215
68 | CCC(NC(N)=O)C(=O)O (configuration not stated) | 174 to 176
69 | Nc1nnc2ccccn12 | 229 to 231
70 | CC(C)(C)OC(=O)Nc1ccc(CC(=O)O)cc1 | 153 to 155
71 | O=C1CCc2ccc(Cl)cc21 | 79 to 81
72 | CC(C)(C)OC(=O)NC(CC(=O)O)c1ccccc1 (configuration not stated) | 135 to 137
73 | O=C(O)C(Oc1ccc(Cl)cc1)c1ccccc1 (configuration not stated) | 161 to 163
74 | Nc1cc(C(F)(F)F)ccc1NCc1ccccc1 | 70 to 75
75 | CC(C)(C)S(=O)Cc1cccc(N)c1 (configuration not stated) | 121 to 123
76 | O=c1[nH][nH]c2ncc(Br)cc12 | 219 to 221
77 | CSc1ccc(C=NO)cc1 | 114 to 116
78 | O=C(O)CCc1ncc(-c2ccccc2Cl)o1 | 184 to 186

Row | SMILES | melting point [°C]
79 | NN1CCN(C(c2ccccc2)c2ccccc2)CC1 | 108 to 110
80 | COc1ccccc1C(=O)c1ccccn1 | 49 to 51
81 | Cc1cc(S(=O)(=O)Cl)ccc1-n1cnnn1 | 134 to 136
82 | COc1ccc(S(=O)(=O)N2CCOCC2)cc1N | 189 to 191
83 | CC1(NC(=O)CCl)CCS(=O)(=O)C1 (configuration not stated) | 96 to 98
84 | O=C(O)C1CCCCN1S(=O)(=O)c1cccs1 (configuration not stated) | 107 to 109
85 | CC(C)CC(CNC(=O)OC(C)(C)C)C(=O)O (configuration not stated) | 76 to 78
86 | COc1cc(C#N)ccc1Oc1ccc(N)cc1 | 123 to 125
87 | CC(C)C(Br)C(=O)Nc1ccccc1F (configuration not stated) | 98 to 100
88 | CSCCC(NC(=O)c1ccco1)C(=O)O (configuration not stated) | 185 to 187
89 | CC(C)(C)OC(=O)NCCCC(=O)NN | 114 to 116
90 | O=Cc1c(-c2ccc(Br)s2)nc2ccccn12 | 186 to 188
91 | CN(C)c1cc2ccccc2c(=O)[nH]1 | 185 to 187
92 | c1cc2[nH]nnc2cn1 | 240 to 242
93 | O=C(O)c1cc(-c2ccccc2)c(N2CCOCC2)s1 | 172 to 174
94 | CCOC(=O)c1c(N)sc(C(=O)N(C)C)c1C | 118 to 122
95 | CC(=O)c1ccc(S(C)(=O)=O)c(F)c1 | 103 to 105
96 | O=C(Nc1sc2c(c1C(=O)O)CCC2)c1ccco1 | 242 to 244
97 | COc1ccc(-c2nn(-c3ccccc3)cc2C=CC(=O)O)cc1OC | 162 to 164
98 | CC(C(=O)O)c1cccnc1 (configuration not stated) | 85 to 87
99 | CC1CN(C(=O)c2cnn(C)c2N)CC(C)O1 (configuration not stated) | 152 to 154
100 | Cc1ncc(Cl)c(C(=O)O)n1 | 130 to 132
101 | O=S(=O)(Cl)Cc1ccc2ccccc2c1 | 97 to 99
102 | CC(C)(C)c1nn(-c2ccccc2Cl)cc1C=O | 111 to 113
